Results on one compound are retold here after paper PMC5218480 (PLoS ONE, 2017).

The assay deals with MV-4-11 cells. The assay can be described thus: Gene expression microarray analysis (Affymetrix PrimeView) and GSEA. In kind it is cell-based, human. More on the design: RFU PODN (11730768_x_at) / Fold change /veh PODN (11730768_x_at) / RFU LINC00158 (11744669_a_at) / Fold change /veh LINC00158 (11744669_a_at) / RFU DUSP10 (11751237_a_at) / Fold change /veh DUSP10 (11751237_a_at) / RFU ID3 (11757404_x_at) / Fold change /veh ID3 (11757404_x_at) / RFU PLEKHG5 (11737974_s_at) / Fold change /veh PLEKHG5 (11737974_s_at) / RFU LRRC4B (11730491_at) / Fold change /veh LRRC4B (11730491_at) / RFU GIMAP4 (11747438_a_at) / Fold change /veh GIMAP4 (11747438_a_at) / RFU KRT8 (11758183_x_at) / Fold change /veh KRT8 (11758183_x_at) / RFU CNN1 (11734310_a_at) / Fold change /veh CNN1 (11734310_a_at) / RFU VPS37D (11726825_at) / Fold change /veh VPS37D (11726825_at) / RFU C10orf10 (11716522_x_at) / Fold change /veh C10orf10 (11716522_x_at) / RFU KIR2DL2 /// KIR2DL4 /// KIR2DL5A /// KIR2DL5B /// KIR2DS1 /// KIR2DS2 /// KIR2DS3 /// KIR2DS4 /// KIR3DL3 /// KIR3DL3 /// KIR3DS1 (11738374_at) / Fold change /veh KIR2DL2 /// KIR2DL4 /// KIR2DL5A /// KIR2DL5B /// KIR2DS1 /// KIR2DS2 /// KIR2DS3 /// KIR2DS4 /// KIR3DL3 /// KIR3DL3 /// KIR3DS1 (11738374_at) / RFU C1QL1 (11718748_at) / Fold change /veh C1QL1 (11718748_at) / RFU TMPRSS4 (11747572_a_at) / Fold change /veh TMPRSS4 (11747572_a_at) / RFU HAMP (11756126_x_at) / Fold change /veh HAMP (11756126_x_at) / RFU RNFT2 (11725882_a_at) / Fold change /veh RNFT2 (11725882_a_at) / RFU NR4A2 (11747474_a_at) / Fold change /veh NR4A2 (11747474_a_at) / RFU ABCC12 (11746883_a_at) / Fold change /veh ABCC12 (11746883_a_at) / RFU TMEM136 (11760407_x_at) / Fold change /veh TMEM136 (11760407_x_at) / RFU CLDN22 /// WWC2 (11732394_at) / Fold change /veh CLDN22 /// WWC2 (11732394_at) / RFU HLA-DPB1 (11760878_x_at) / Fold change /veh HLA-DPB1 (11760878_x_at) / RFU SPINT1 (11716480_a_at) / Fold change /veh SPINT1 (11716480_a_at) / RFU GAP43 (11754022_s_at) / Fold change /veh GAP43 (11754022_s_at) / RFU A4GNT (11735810_at) / Fold change /veh A4GNT (11735810_at) / RFU PRB3 (11715151_x_at) / Fold change /veh PRB3 (11715151_x_at) / RFU TUBB4B (11761932_at) / Fold change /veh TUBB4B (11761932_at) / RFU CAPN14 (11732068_a_at) / Fold change /veh CAPN14 (11732068_a_at) / RFU TMCC2 (11721928_a_at) / Fold change /veh TMCC2 (11721928_a_at) / RFU IRGQ (11745062_a_at) / Fold change /veh IRGQ (11745062_a_at) / RFU FAM174B (11720279_a_at) / Fold change /veh FAM174B (11720279_a_at) / RFU TMPRSS4 (11748680_a_at) / Fold change /veh TMPRSS4 (11748680_a_at) / RFU FAM212B (11763350_a_at) / Fold change /veh FAM212B (11763350_a_at) / RFU PLEKHG5 (11743358_a_at) / Fold change /veh PLEKHG5 (11743358_a_at) / RFU ZSCAN30 (11745921_a_at) / Fold change /veh ZSCAN30 (11745921_a_at) / RFU CMKLR1 (11741424_a_at) / Fold change /veh CMKLR1 (11741424_a_at) / RFU LOC101060620 /// MAPK8IP1 (11723275_at) / Fold change /veh LOC101060620 /// MAPK8IP1 (11723275_at) / RFU SPTSSB (11747773_x_at) / Fold change /veh SPTSSB (11747773_x_at) / RFU PRSS12 (11739890_at) / Fold change /veh PRSS12 (11739890_at) / RFU BIN1 (11741810_x_at) / Fold change /veh BIN1 (11741810_x_at) / RFU WNT11 (11732464_a_at) / Fold change /veh WNT11 (11732464_a_at) / RFU C10orf10 (11716521_a_at) / Fold change /veh C10orf10 (11716521_a_at) / RFU C5orf56 (11738089_at) / Fold change /veh C5orf56 (11738089_at) / RFU CYB561 (11721691_x_at) / Fold change /veh CYB561 (11721691_x_at) / RFU ANKRD19P (11752326_a_at) / Fold change /veh ANKRD19P (11752326_a_at) / RFU OR2T12 /// OR2T33 /// OR2T8 (11738714_s_at) / Fold change /veh OR2T12 /// OR2T33 /// OR2T8 (11738714_s_at) / RFU VCAN (11748164_a_at) / Fold change /veh VCAN (11748164_a_at) / RFU JSRP1 (11732532_at) / Fold change /veh JSRP1 (11732532_at) / RFU KRTAP10-11 (11738290_x_at) / Fold change /veh KRTAP10-11 (11738290_x_at) / RFU MYO3A (11730013_a_at) / Fold change /veh MYO3A (11730013_a_at) / RFU EBF3 (11725865_a_at) / Fold change /veh EBF3 (11725865_a_at) / RFU CAMK2N1 (11719241_x_at) / Fold change /veh CAMK2N1 (11719241_x_at) / RFU C5orf56 (11738088_a_at) / Fold change /veh C5orf56 (11738088_a_at) / RFU OLFML3 (11715873_a_at) / Fold change /veh OLFML3 (11715873_a_at) / RFU LOC100653217 /// NTM (11731650_a_at) / Fold change /veh LOC100653217 /// NTM (11731650_a_at) / RFU MAPK11 (11762145_a_at) / Fold change /veh MAPK11 (11762145_a_at) / RFU FIZ1 (11724087_x_at) / Fold change /veh FIZ1 (11724087_x_at) / RFU OASL (11726364_x_at) / Fold change /veh OASL (11726364_x_at) / RFU SOX15 (11748057_x_at) / Fold change /veh SOX15 (11748057_x_at) / RFU CD79A (11719716_a_at) / Fold change /veh CD79A (11719716_a_at) / RFU HIST1H1D (11736915_at) / Fold change /veh HIST1H1D (11736915_at) / RFU CASKIN2 (11723855_a_at) / Fold change /veh CASKIN2 (11723855_a_at) / RFU LOC730098 (11760151_x_at) / Fold change /veh LOC730098 (11760151_x_at) / RFU OR4N2 (11742367_at) / Fold change /veh OR4N2 (11742367_at) / RFU PRRT2 (11749266_a_at) / Fold change /veh PRRT2 (11749266_a_at) / RFU SNX32 (11753110_a_at) / Fold change /veh SNX32 (11753110_a_at) / RFU CDHR5 (11726645_a_at) / Fold change /veh CDHR5 (11726645_a_at) / RFU RCAN1 (11760418_a_at) / Fold change /veh RCAN1 (11760418_a_at) / RFU FAM167A (11723789_a_at) / Fold change /veh FAM167A (11723789_a_at) / RFU FAM26E (11764081_at) / Fold change /veh FAM26E (11764081_at) / RFU ISYNA1 (11749810_s_at) / Fold change /veh ISYNA1 (11749810_s_at) / RFU ACY1 (11761880_at) / Fold change /veh ACY1 (11761880_at) / RFU 11764098_at / Fold change /veh 11764098_at / RFU SAMD14 (11745864_x_at) / Fold change /veh SAMD14 (11745864_x_at) / RFU NPB (11741838_a_at) / Fold change /veh NPB (11741838_a_at) / RFU TMPRSS6 (11731388_a_at) / Fold change /veh TMPRSS6 (11731388_a_at) / RFU KRTAP10-2 (11738614_at) / Fold change /veh KRTAP10-2 (11738614_at) / RFU ARHGAP8 /// PRR5-ARHGAP8 (11727945_x_at) / Fold change /veh ARHGAP8 /// PRR5-ARHGAP8 (11727945_x_at) / RFU KRTAP5-7 /// NADSYN1 (11734609_at) / Fold change /veh KRTAP5-7 /// NADSYN1 (11734609_at) / RFU RASL12 (11751679_a_at) / Fold change /veh RASL12 (11751679_a_at) / RFU CDKN2B (11736163_a_at) / Fold change /veh CDKN2B (11736163_a_at) / RFU PRF1 (11729649_at) / Fold change /veh PRF1 (11729649_at) / RFU, ZNF638 /// ZNF638-IT1 / Fold change vs veh, ZNF638 /// ZNF638-IT1 / RFU, PANK3 / Fold change vs veh, PANK3 / RFU, SH3YL1 / Fold change vs veh, SH3YL1 / RFU, ZEB2 / Fold change vs veh, ZEB2 / RFU, NRIP1 / Fold change vs veh, NRIP1 / RFU, PTTG1IP / Fold change vs veh, PTTG1IP / RFU, CAPN2 / Fold change vs veh, CAPN2 / RFU, MED14 / Fold change vs veh, MED14 / RFU, SNORA58 / Fold change vs veh, SNORA58 / RFU, C1orf63 / Fold change vs veh, C1orf63 / RFU, LRRFIP1 / Fold change vs veh, LRRFIP1 / RFU, NDUFAF7 / Fold change vs veh, NDUFAF7 / RFU, SLC12A2 / Fold change vs veh, SLC12A2 / RFU, IBTK / Fold change vs veh, IBTK / RFU, ESF1 / Fold change vs veh, ESF1 / Fold change vs veh, TMEM50B / RFU, TAOK1 / Fold change vs veh, TAOK1 / RFU, ACBD3 / Fold change vs veh, ACBD3 / RFU, TMA16 / Fold change vs veh, TMA16 / RFU, RWDD3 / Fold change vs veh, RWDD3 / RFU, BCAT1 / Fold change vs veh, BCAT1 / RFU, EDEM3 / Fold change vs veh, EDEM3 / RFU, TMEM33 / Fold change vs veh, TMEM33 / RFU, WDR75 / Fold change vs veh, WDR75 / RFU, AHCTF1 / Fold change vs veh, AHCTF1 / RFU, TFRC / Fold change vs veh, TFRC / RFU, ZDHHC17 / Fold change vs veh, ZDHHC17 / RFU, NOM1 / Fold change vs veh, NOM1 / RFU, ARL8B / Fold change vs veh, ARL8B / RFU, ZBTB11 / Fold change vs veh, ZBTB11 / RFU, TAMM41 / Fold change vs veh, TAMM41 / RFU, KIAA1704 /// LOC100996395 / Fold change vs veh, KIAA1704 /// LOC100996395 / RFU, ING1 / Fold change vs veh, ING1 / RFU, TRMT61B / Fold change vs veh, TRMT61B / RFU, FUBP3 / Fold change vs veh, FUBP3 / RFU, TP53 / Fold change vs veh, TP53 / RFU, TNKS2 / Fold change vs veh, TNKS2 / RFU, ZFP14 / Fold change vs veh, ZFP14 / RFU, ACTR2 / Fold change vs veh, ACTR2 / RFU, PPP3R1 / Fold change vs veh, PPP3R1 / RFU, PIK3R1 / Fold change vs veh, PIK3R1 / RFU, HNRNPA1 / Fold change vs veh, HNRNPA1 / RFU, RNF170 / Fold change vs veh, RNF170 / RFU, ZNF28 / Fold change vs veh, ZNF28 / RFU, RNGTT / Fold change vs veh, RNGTT / RFU, OGT / Fold change vs veh, OGT / RFU, BRD1 / Fold change vs veh, BRD1 / RFU, MARS / Fold change vs veh, MARS / RFU, ZNF655 / Fold change vs veh, ZNF655 / RFU, FAHD1 / Fold change vs veh, FAHD1 / RFU, BDP1 / Fold change vs veh, BDP1 / RFU, LRRCC1 / Fold change vs veh, LRRCC1 / RFU, ARID1A / Fold change vs veh, ARID1A / RFU, ZNF146 / Fold change vs veh, ZNF146 / RFU, ZNF330 / Fold change vs veh, ZNF330 / RFU, GPN3 / Fold change vs veh, GPN3 / RFU, C9orf123 / Fold change vs veh, C9orf123 / RFU, N4BP2L2 / Fold change vs veh, N4BP2L2 / RFU, ARFIP1 / Fold change vs veh, ARFIP1 / RFU, FAM179B / Fold change vs veh, FAM179B / RFU, BCL10 / Fold change vs veh, BCL10 / RFU, UHRF1BP1L / Fold change vs veh, UHRF1BP1L / RFU, BET1 / Fold change vs veh, BET1 / RFU, CNOT2 / Fold change vs veh, CNOT2 / RFU, ZNF268 / Fold change vs veh, ZNF268 / Fold change vs veh, ZNF507 / RFU, DGCR2 / Fold change vs veh, DGCR2 / RFU, WDSUB1 / Fold change vs veh, WDSUB1 / Fold change vs veh, HSP90B1 /// MIR3652 / RFU, ADSS / Fold change vs veh, ADSS / RFU, GK / Fold change vs veh, GK / RFU, ZNF148 / Fold change vs veh, ZNF148 / RFU, TAF9 / Fold change vs veh, TAF9 / RFU, SLC1A5 / Fold change vs veh, SLC1A5 / RFU, SLMO2 / Fold change vs veh, SLMO2 / RFU, ABCC4 / Fold change vs veh, ABCC4 / RFU, LOC101060439 /// RAP1B / Fold change vs veh, LOC101060439 /// RAP1B / RFU, RFX7 / Fold change vs veh, RFX7 / RFU, GTPBP10 / Fold change vs veh, GTPBP10 / RFU, CNEP1R1 / Fold change vs veh, CNEP1R1 / RFU, BIVM-ERCC5 /// ERCC5 / Fold change vs veh, BIVM-ERCC5 /// ERCC5 / RFU, ILF3 / Fold change vs veh, ILF3 / RFU 11762660_at / Fold change /veh 11762660_at / RFU VCAN (11757783_s_at) / Fold change /veh VCAN (11757783_s_at) / RFU DDX43 (11728927_at) / Fold change /veh DDX43 (11728927_at) / RFU KRT8 (11758188_x_at) / Fold change /veh KRT8 (11758188_x_at) / RFU NKD1 (11759106_at) / Fold change /veh NKD1 (11759106_at) / RFU SRD5A1 (11742802_a_at) / Fold change /veh SRD5A1 (11742802_a_at) / RFU TPSAB1 /// TPSB2 (11721975_s_at) / Fold change /veh TPSAB1 /// TPSB2 (11721975_s_at) / RFU GSTM3 (11746129_a_at) / Fold change /veh GSTM3 (11746129_a_at) / RFU IL23R (11737362_x_at) / Fold change /veh IL23R (11737362_x_at) / RFU TMEM51 (11727254_a_at) / Fold change /veh TMEM51 (11727254_a_at) / RFU PIWIL2 (11732686_x_at) / Fold change /veh PIWIL2 (11732686_x_at) / RFU ORM1 (11744905_x_at) / Fold change /veh ORM1 (11744905_x_at) / RFU CCDC152 (11743942_at) / Fold change /veh CCDC152 (11743942_at) / RFU ECM1 (11717891_a_at) / Fold change /veh ECM1 (11717891_a_at) / RFU IL23R (11748794_a_at) / Fold change /veh IL23R (11748794_a_at) / RFU TNFAIP8L3 (11732012_x_at) / Fold change /veh TNFAIP8L3 (11732012_x_at) / RFU MBOAT4 (11741988_at) / Fold change /veh MBOAT4 (11741988_at) / RFU 11764193_at / Fold change /veh 11764193_at / RFU TMEM53 (11763286_at) / Fold change /veh TMEM53 (11763286_at) / RFU MAGEB2 (11727129_at) / Fold change /veh MAGEB2 (11727129_at) / RFU TMEM200A (11744735_a_at) / Fold change /veh TMEM200A (11744735_a_at) / RFU CCDC152 (11751479_a_at) / Fold change /veh CCDC152 (11751479_a_at) / RFU FAM211A (11726209_a_at) / Fold change /veh FAM211A (11726209_a_at) / RFU RGS16 (11746705_a_at) / Fold change /veh RGS16 (11746705_a_at) / RFU VCAN (11755009_s_at) / Fold change /veh VCAN (11755009_s_at) / RFU RHOB (11743442_s_at) / Fold change /veh RHOB (11743442_s_at) / RFU RGS16 (11720943_a_at) / Fold change /veh RGS16 (11720943_a_at) / RFU RGS16 (11720944_at) / Fold change /veh RGS16 (11720944_at) / RFU, VPS4B / Fold change vs veh, VPS4B / RFU, CREB1 / Fold change vs veh, CREB1 / RFU, DNAJC13 / Fold change vs veh, DNAJC13 / RFU, GNAQ / Fold change vs veh, GNAQ / RFU, CDK5R1 / Fold change vs veh, CDK5R1 / RFU, ZRANB3 / Fold change vs veh, ZRANB3 / RFU, CUL4A / Fold change vs veh, CUL4A / RFU, CCNY / Fold change vs veh, CCNY / RFU, UFL1 / Fold change vs veh, UFL1 / RFU, COG3 / Fold change vs veh, COG3 / RFU, DIAPH2 / Fold change vs veh, DIAPH2 / RFU, SKA2 / Fold change vs veh, SKA2 / RFU, AFF3 / Fold change vs veh, AFF3 / RFU, LMF1 / Fold change vs veh, LMF1 / RFU, IPO11 / Fold change vs veh, IPO11 / RFU, DFFB / Fold change vs veh, DFFB / RFU, FOXP1 / Fold change vs veh, FOXP1 / RFU, CARD8 / Fold change vs veh, CARD8 / RFU, STRN3 / Fold change vs veh, STRN3 / RFU, ADK / Fold change vs veh, ADK / RFU, RASSF2 / Fold change vs veh, RASSF2 / RFU, WIPF1 / Fold change vs veh, WIPF1 / RFU, LARP1B / Fold change vs veh, LARP1B / RFU, RASA1 / Fold change vs veh, RASA1 / RFU, RB1 / Fold change vs veh, RB1 / RFU, PPFIA1 / Fold change vs veh, PPFIA1 / RFU, MAT2A / Fold change vs veh, MAT2A / RFU, CCT5 / Fold change vs veh, CCT5 / RFU, WDR92 / Fold change vs veh, WDR92 / RFU, CUX1 / Fold change vs veh, CUX1 / RFU, TTC7A / Fold change vs veh, TTC7A / RFU, TMEM135 / Fold change vs veh, TMEM135 / RFU, DEPTOR / Fold change vs veh, DEPTOR / RFU, CPM / Fold change vs veh, CPM / RFU, DNAJB6 / Fold change vs veh, DNAJB6 / RFU, CACNA2D3 / Fold change vs veh, CACNA2D3 / RFU, DTX4 / Fold change vs veh, DTX4 / RFU, TFCP2 / Fold change vs veh, TFCP2 / RFU, GMCL1 /// GMCL1P1 / Fold change vs veh, GMCL1 /// GMCL1P1 / RFU, AEBP2 / Fold change vs veh, AEBP2 / RFU, SNHG1 /// SNORD22 /// SNORD25 /// SNORD26 /// SNORD27 /// SNORD28 /// SNORD29 /// SNORD31 / Fold change vs veh, SNHG1 /// SNORD22 /// SNORD25 /// SNORD26 /// SNORD27 /// SNORD28 /// SNORD29 /// SNORD31 / Fold change (Aza/veh), C12orf56 (ProbeSet 11735607_a_at) / Fold change (ACY-1035/veh), C12orf56 (ProbeSet 11735607_a_at) / Fold change (Aza/veh), FGFR1OP (ProbeSet 11751329_s_at) / Fold change (ACY-1035/veh), FGFR1OP (ProbeSet 11751329_s_at) / Fold change (Aza/veh), VPS36 (ProbeSet 11739960_a_at) / Fold change (ACY-1035/veh), VPS36 (ProbeSet 11739960_a_at) / RFU SYPL1 (11715823_x_at) / Fold change /veh SYPL1 (11715823_x_at) / RFU IGFBP7 (11715501_s_at) / Fold change /veh IGFBP7 (11715501_s_at) / RFU REEP3 (11722064_at) / Fold change /veh REEP3 (11722064_at) / RFU IGLL1 (11728026_x_at) / Fold change /veh IGLL1 (11728026_x_at): dose or concentration left out as unconfirmed. The note with it: ProbeSet 11729173_a_at; LIST D.

As for `Nc1ccc(-c2cccs2)cc1NC(=O)c1ccc2c(c1)cc(C1CC1)n2CCN1CCOCC1` [ACY-1035], the “RFU, SKA2” value came to 338.69 RFU.
